# Data: patent US9302999B2, “Substituted triazoles as herbicides” (E. I. DU PONT DE NEMOURS AND COMPANY, priority 2012, dated 2016)
# Where two headings read alike, the source gives them in different places.
# Columns and labels:
# Format in all cases: in vivo
# [1] = test system: crabgrass, large (large crabgrass, Digitaria sanguinalis); experiment: Test A pre-/postemergence: crabgrass, large; conditions: for pest or weed control at 125 g/ha / pest or weed control at 500 g/ha: Digitaria sanguinalis, 240 h
# In short: (§1)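 Soil medium was loam blended with sand; treatments pre- and postemergence were applied concurrently, postemergence at one- to two-leaf stage. Approximately ten days in greenhouse preceded visual comparison with untreated controls, scored 0 (no effect) to 100 (complete control).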
# [2] = test system: foxtail, giant (giant foxtail, Setaria faberii); experiment: Test A pre-/postemergence: foxtail, giant; conditions: for pest or weed control at 125 g/ha / pest or weed control at 500 g/ha: Setaria faberi, 240 h
# In short: as §1
# [3] = test system: wheat (Triticum aestivum); experiment: Test A pre-/postemergence: wheat; conditions: for plant injury at 125 g/ha / plant injury at 500 g/ha: Triticum aestivum, 240 h
# In short: as §1
# corn (Zea mays) = experiment: Test A pre-/postemergence: corn
# In short: as §1
# [4] = test system: ryegrass, Italian (Italian ryegrass, Lolium multiflorum); experiment: Test C pre-/postemergence: ryegrass, Italian
# In short: (§2)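 Preemergence on seeds in loam/sand, postemergence on 2–18 cm (1–4-leaf) plants in peat-based medium; compounds in non-phytotoxic solvent with surfactant. After 13–15 days in greenhouse, visual rating versus controls, 0 (no effect) to 100 (complete control).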
# [5] = test system: johnsongrass (Sorghum halepense); experiment: Test C pre-/postemergence: johnsongrass
# In short: as §2
# [6] = test system: lambsquarters (Chenopodium album); experiment: Test C pre-/postemergence: lambsquarters
# In short: as §2
# [7] = test system: velvetleaf (Abutilon theophrasti); experiment: Test C pre-/postemergence: velvetleaf
# In short: as §2
# [8] = Postemergence, 16 g ai/ha, scale 0 to 100, 0 no effect, 100 complete control
# [9] = Postemergence, 31 g ai/ha, scale 0 to 100 (0 no effect, 100 complete control)
# [10] = Postemergence, 62 g ai/ha, scale 0 to 100 (0 no effect, 100 complete control)
# [11] = Postemergence, 125 g ai/ha, scale 0 to 100, 0 no effect, 100 complete control
# [12] = Preemergence, 16 g ai/ha, scale 0 (no effect) to 100 (complete control)
# [13] = Preemergence, 31 g ai/ha, scale of 0 to 100, 0 is no effect, 100 is complete control
# [14] = Preemergence, 62 g ai/ha, scale of 0 to 100, 0 is no effect, 100 is complete control
# [15] = Preemergence, 125 g ai/ha, scale 0 to 100, 0 no effect, 100 complete control
# [16] = Postemergence, 125 g ai/ha, 0 to 100 scale, 0 is no effect, 100 is complete control
# [17] = Postemergence, 500 g ai/ha, visual rating on 0 to 100 scale (0 no effect, 100 complete control), approximately ten days
# [18] = Preemergence, 125 g ai/ha, 0 to 100 scale where 0 is no effect and 100 is complete control
# [19] = Preemergence, 500 g ai/ha, 0 to 100 scale (0 no effect, 100 complete control)
# [20] = Postemergence, 250 g ai/ha, scale 0 to 100
# [21] = Preemergence, 250 g ai/ha, scale 0 to 100, 0 no effect, 100 complete control
smiles,measurement,setting,value
"COc1nn(-c2ccc(C(F)(F)F)cc2)nc1Cc1ccnc(C(F)(F)F)c1 [Compound 15, 4-[[5-methoxy-2-[4-(trifluoromethyl)phenyl]-2H-1,2,3-triazol-4-yl]methyl]-2-(trifluoromethyl)pyridine]",pest or weed control at 125 g/ha,"[1]; post-emergence, Postemergence, 125 g ai/ha, 0 to 100 scale, 0 is no effect, 100 is complete control, read-out: Crabgrass, Large plant response rating",90%
same,pest or weed control at 500 g/ha,"[1]; post-emergence, Postemergence, 500 g ai/ha, visual rating on 0 to 100 scale (0 no effect, 100 complete control), approximately ten days, read-out: Crabgrass, Large plant response rating",90%
same,pest or weed control at 125 g/ha,"[1]; pre-emergence, Preemergence, 125 g ai/ha, 0 to 100 scale (0 no effect, 100 complete control), read-out: Plant response rating, Crabgrass, Large",100%
same,pest or weed control at 500 g/ha,"[1]; pre-emergence, Preemergence, 500 g ai/ha, 0 to 100 scale, 0 is no effect, 100 is complete control, read-out: Plant response rating, Crabgrass, Large",100%
same,pest or weed control at 125 g/ha,"[2]; post-emergence, Postemergence, 125 g ai/ha, 0 to 100 scale, 0 is no effect, 100 is complete control, read-out: Foxtail, Giant plant response rating",90%
same,pest or weed control at 500 g/ha,"[2]; post-emergence, Postemergence, 500 g ai/ha, visual rating on 0 to 100 scale (0 no effect, 100 complete control), approximately ten days, read-out: Foxtail, Giant plant response rating",90%
same,pest or weed control at 125 g/ha,"[2]; pre-emergence, Preemergence, 125 g ai/ha, 0 to 100 scale (0 no effect, 100 complete control), read-out: Plant response rating, Foxtail, Giant",100%
same,pest or weed control at 500 g/ha,"[2]; pre-emergence, Preemergence, 500 g ai/ha, 0 to 100 scale, 0 is no effect, 100 is complete control, read-out: Plant response rating, Foxtail, Giant",100%
same,plant injury at 125 g/ha,"[3]; post-emergence, Postemergence, 125 g ai/ha, 0 to 100 scale, 0 is no effect, 100 is complete control, read-out: Wheat plant response rating",30%
same,plant injury at 500 g/ha,"[3]; post-emergence, Postemergence, 500 g ai/ha, visual rating on 0 to 100 scale (0 no effect, 100 complete control), approximately ten days, read-out: Wheat plant response rating",50%
same,plant injury at 125 g/ha,"[3]; pre-emergence, Preemergence, 125 g ai/ha, 0 to 100 scale (0 no effect, 100 complete control), read-out: Plant response rating, Wheat",30%
same,plant injury at 500 g/ha,"[3]; pre-emergence, Preemergence, 500 g ai/ha, 0 to 100 scale, 0 is no effect, 100 is complete control, read-out: Plant response rating, Wheat",50%
same,plant injury at 125 g/ha,"corn (Zea mays); Zea mays, post-emergence, 240 h, Postemergence, 125 g ai/ha, 0 to 100 scale, 0 is no effect, 100 is complete control, read-out: Corn plant response rating",30%
same,plant injury at 500 g/ha,"corn (Zea mays); Zea mays, post-emergence, 240 h, Postemergence, 500 g ai/ha, visual rating on 0 to 100 scale (0 no effect, 100 complete control), approximately ten days, read-out: Corn plant response rating",50%
same,"Corn plant response rating (crop injury, 0 = no effect, 100 = complete kill) at 125 g/ha","corn (Zea mays); Zea mays, pre-emergence, 240 h, Preemergence, 125 g ai/ha, 0 to 100 scale (0 no effect, 100 complete control)",20%
same,"Corn plant response rating (crop injury, 0 = no effect, 100 = complete kill) at 500 g/ha","corn (Zea mays); Zea mays, pre-emergence, 240 h, Preemergence, 500 g ai/ha, 0 to 100 scale, 0 is no effect, 100 is complete control",50%
same,"Plant response rating, Ryegrass, Italian",[4]; [8],10
same,"Plant response rating, Ryegrass, Italian",[4]; [9],30
same,"Plant response rating, Ryegrass, Italian",[4]; [10],45
same,"Plant response rating, Ryegrass, Italian",[4]; [11],60
same,"Plant response rating, Ryegrass, Italian",[4]; [12],10
same,"Plant response rating, Ryegrass, Italian",[4]; [13],40
same,"Plant response rating, Ryegrass, Italian",[4]; [14],45
same,"Plant response rating, Ryegrass, Italian",[4]; [15],80
same,"Plant response rating, Johnsongrass",[5]; [8],0
same,"Plant response rating, Johnsongrass",[5]; [9],45
same,"Plant response rating, Johnsongrass",[5]; [10],60
same,"Plant response rating, Johnsongrass",[5]; [11],80
same,"Plant response rating, Johnsongrass",[5]; [12],15
same,"Plant response rating, Johnsongrass",[5]; [13],55
same,"Plant response rating, Johnsongrass",[5]; [14],85
same,"Plant response rating, Johnsongrass",[5]; [15],90
same,"Plant response rating, Lambsquarters",[6]; [8],100
same,"Plant response rating, Lambsquarters",[6]; [9],100
same,"Plant response rating, Lambsquarters",[6]; [10],100
same,"Plant response rating, Lambsquarters",[6]; [11],100
same,"Plant response rating, Lambsquarters",[6]; [12],95
same,"Plant response rating, Lambsquarters",[6]; [13],100
same,"Plant response rating, Lambsquarters",[6]; [14],100
same,"Plant response rating, Lambsquarters",[6]; [15],100
same,"Plant response rating, Velvetleaf",[7]; [8],60
same,"Plant response rating, Velvetleaf",[7]; [9],60
same,"Plant response rating, Velvetleaf",[7]; [10],60
same,"Plant response rating, Velvetleaf",[7]; [11],90
same,"Plant response rating, Velvetleaf",[7]; [12],0
same,"Plant response rating, Velvetleaf",[7]; [13],0
same,"Plant response rating, Velvetleaf",[7]; [14],20
same,"Plant response rating, Velvetleaf",[7]; [15],80
Cc1nn(-c2ccc(C(F)(F)F)cc2)nc1Oc1ccnc(C(F)(F)F)c1 [Compound 120],"Crabgrass, Large plant response rating",[1]; [16],80
same,"Crabgrass, Large plant response rating",[1]; [17],90
same,"Plant response rating, Crabgrass, Large",[1]; [18],100
same,"Plant response rating, Crabgrass, Large",[1]; [19],100
same,"Foxtail, Giant plant response rating",[2]; [16],80
same,"Foxtail, Giant plant response rating",[2]; [17],80
same,"Plant response rating, Foxtail, Giant",[2]; [18],100
same,"Plant response rating, Foxtail, Giant",[2]; [19],100
same,Wheat plant response rating,[3]; [16],10
same,Wheat plant response rating,[3]; [17],30
same,"Plant response rating, Wheat",[3]; [18],10
same,"Plant response rating, Wheat",[3]; [19],20
same,Corn plant response rating,corn (Zea mays); [16],20
same,Corn plant response rating,corn (Zea mays); [17],50
same,"Plant response rating, Corn",corn (Zea mays); [18],20
same,"Plant response rating, Corn",corn (Zea mays); [19],30
same,"Plant response rating, Ryegrass, Italian",[4]; [9],5
same,"Plant response rating, Ryegrass, Italian",[4]; [10],5
same,"Plant response rating, Ryegrass, Italian",[4]; [11],5
same,"Plant response rating, Ryegrass, Italian",[4]; [20],30
same,"Plant response rating, Ryegrass, Italian",[4]; [13],40
same,"Plant response rating, Ryegrass, Italian",[4]; [14],90
same,"Plant response rating, Ryegrass, Italian",[4]; [15],90
same,"Plant response rating, Ryegrass, Italian",[4]; [21],95
same,"Plant response rating, Johnsongrass",[5]; [9],0
same,"Plant response rating, Johnsongrass",[5]; [10],5
same,"Plant response rating, Johnsongrass",[5]; [11],25
same,"Plant response rating, Johnsongrass",[5]; [20],45
same,"Plant response rating, Johnsongrass",[5]; [13],25
same,"Plant response rating, Johnsongrass",[5]; [14],80
same,"Plant response rating, Johnsongrass",[5]; [15],95
same,"Plant response rating, Johnsongrass",[5]; [21],98
same,"Plant response rating, Lambsquarters",[6]; [9],100
same,"Plant response rating, Lambsquarters",[6]; [10],100
same,"Plant response rating, Lambsquarters",[6]; [11],100
same,"Plant response rating, Lambsquarters",[6]; [20],100
same,"Plant response rating, Lambsquarters",[6]; [13],85
same,"Plant response rating, Lambsquarters",[6]; [14],100
same,"Plant response rating, Lambsquarters",[6]; [15],100
same,"Plant response rating, Lambsquarters",[6]; [21],100
same,"Plant response rating, Velvetleaf",[7]; [9],20
same,"Plant response rating, Velvetleaf",[7]; [10],45
same,"Plant response rating, Velvetleaf",[7]; [11],55
same,"Plant response rating, Velvetleaf",[7]; [20],65
same,"Plant response rating, Velvetleaf",[7]; [13],5
same,"Plant response rating, Velvetleaf",[7]; [14],15
same,"Plant response rating, Velvetleaf",[7]; [15],35
same,"Plant response rating, Velvetleaf",[7]; [21],100
